# Laboratory results published in US20190133930A1, “Methods of Anesthetizing Nerve Tissue in the Trigeminal Nerve Pathway and Medical Uses Thereof” (Apollonia, LLC, priority 2014, published 2019).
# Where a name gives a salt, the structure may show the parent alone.
# What was measured:
# Type in all cases: in vitro ADME
# [1] = MatTek EpiAirway cell monolayer permeability of local anesthetics after excipient pre-treatment; details: human, pH 6, EpiAirway, 10 mM test article, donor pH 6.0, 37° C., 0.5 hr
# Description: The EpiAirway™ cell line is derived from normal human respiratory airway cells and models the mucosal tissue in the nasal cavity's respiratory airway, the main site of drug absorption following intranasal administration.
# EpiAirway™ tissues were treated with the excipients (0.5% sodium caprate, 0.5% sodium deoxycholate, 0.5% polyoxyethylene 9 lauryl ether, and 0.5% lysophosphatidylcholine) for 20 min. The excipients were then washed off the EpiAirway™ tissues. […] The receiver wells contained standard transport buffer. The fluorescent marker Lucifer Yellow and atenolol (10 μM) were also included to monitor monolayer integrity at the end of the assay. The plates were incubated at 37° C. for 30 min. An aliquot of the receiver chamber was removed for analysis.
# At the end of the incubation period, the donor plate was removed from the receiver plate. The donor and receiver samples were analyzed and quantified by LC-MS/MS (propranolol used as internal LC-MS standard).
# To verify the monolayer integrity, aliquots of the cell buffers were analyzed by fluorescence and LC-MS/MS to determine the transport of the impermeable dye Lucifer Yellow and atenolol, respectively.
# (§1) Data are expressed as permeability (Papp): Papp=(dQ/dt)/C0A
# (§2) Where dQ/dt is the rate of permeation, C0 is the initial concentration of test agent, and A is the area of the monolayer.
# For mass spectroscopy method development, the signal was optimized for each compound by electrospray ionization (ESI) in positive ionization mode. An MS2 scan was used to optimize the precursor ion mass, and an SIM scan was used to optimize the fragmenter voltage. Product ion analysis was used to identify the best fragment and collision energy for analysis.
# Following MRM method optimization, a test injection was performed and an ionization ranking was assigned indicating the compound's ease of ionization.
# (§3) Samples were analyzed by LC/MS/MS using an Agilent 6410 mass spectrometer coupled with an Agilent 1200 HPLC and a CTC PAL chilled autosampler, all controlled by MassHunter software (Agilent). After separation on a C18 reverse phase HPLC column (Agilent Zorbax StableBond 3.5 um, 2.1×30 mm) using an acetonitrile-water gradient, peaks were analyzed by mass spectrometry using ESI ionization in MRM mode. Diclofenac was utilized as an analytical internal standard (IS).
# [2] = as above; details: human, pH 6, EpiAirway, 10 mM test article, donor pH 6.0, 37° C., 0.5 hr; excipient: none
# [3] = Caco-2 cell monolayer apical to basolateral permeability of local anesthetic after excipient pre-treatment; details: human, Caco-2, pH 6, Caco-2, A→B, 10 mM Tetracaine HCl, apical pH 6.0, 0.5 hr
# Description: (§4) A first experiment was performed to test the ability of a mucosal absorption enhancer to promote transport of a local anesthetic agent across a mucosal epithelial cell monolayer. In this experiment, the Caco-2 cell line (an intestinal mucosal cell line) was grown and maintained at a pH of 6.0 for the length of time sufficient to establish tight junctions between the cells in the monolayer. After formation of the monolayer, sodium caprate was administered to the apical side of the Caco-2 cell monolayer at a concentration depending on the given test sample. After 20 minutes, the sodium caprate was washed off of the monolayer. Tetracaine hydrochloride was then administered to the apical side of the Caco-2 cell monolayer at a concentration of 10 mM. An additional test sample including tetracaine but lacking sodium caprate was also administered to the apical side of a separate Caco-2 cell monolayer as a control. The assay duration was 30 minutes. The apical to basolateral permeability rate coefficient of tetracaine across the Caco-2 cell monolayer was determined by LC/MS/MS for each test composition. The permeability rate coefficient (Papp) was based on the percent of the drug that is transported across the epithelial monolayer as a function of time and surface area of the monolayer. Drug permeability across the Caco-2 cell monolayers is a well-known model of transmucosal drug absorption in humans.
# (§5) Caco-2 cells grown in tissue culture flasks were trypsinized, suspended in medium, and the suspensions were applied to wells of a Millipore 96 well Caco-2 plate. The cells were allowed to grow and differentiate for three weeks, feeding at 2-day intervals.
# (§6) The Caco-2 cells were treated with the excipient (sodium caprate) for 20 minutes at concentrations of 0.2%, 0.5%, 1.0%, and 2.0%. The excipient was then washed off of the Caco-2 cell monolayer. For Apical to Basolateral (A→B) permeability, the test agent (10 mM Tetracaine HCl) was added to the apical (A) side and amount of permeation was determined on the basolateral (B) side. The A-side buffer contained 100 μM Lucifer Yellow (LY) dye and 10 μM Atenolol, in Transport Buffer (1.98 g/L glucose in 10 mM HEPES, 1× Hank's Balanced Salt Solution without Mg2+ and Ca2+) pH 6.0 for test articles. The B-side buffer was standard Transport Buffer, pH 7.4. Caco-2 cells were incubated with these buffers for 0.5 hr, and the receiver side buffer was removed for analysis by LC/MS/MS (propranolol used as internal LC/MS standard).
# (§7) To verify that the Caco-2 cell monolayers were properly formed (and remained intact during the assay), aliquots of the cell buffers were analyzed by fluorescence and LC/MS/MS to determine the transport of the impermeable dye Lucifer Yellow and atenolol, respectively. Any deviations from control values are reported.
# as §1, §2
# (§8) For analytical method development, the analyte signal was optimized for each compound by ESI positive or negative ionization mode. An MS2 scan or an SIM scan was used to optimize the fragmenter voltage and a product ion analysis was used to identify the best fragment for analysis, and the collision energy was optimized using a product ion or MRM scan. An ionization ranking was assigned indicating the compound's ease of ionization.
# as §3, with “μm,” for “um,”, “gradient system,” for “gradient,”, “spectrometry (MS)” for “spectrometry”, “mode.” for “mode. Diclofenac was utilized as an analytical internal standard (IS).”
# [4] = system: Caco-2 cell monolayer; experiment: as above; details: Caco-2; sodium caprate 0.2-2.0% versus no excipient; dose dependent
# Description: as §4, §5, §6, §7, §1, §2, §8
# as §3, with “μm,” for “um,”, “gradient system,” for “gradient,”, “spectrometry (MS)” for “spectrometry”, “mode.” for “mode. Diclofenac was utilized as an analytical internal standard (IS).”
# [5] = 20 min pre-treatment with 0.5% Lysophosphatidylcholine
# [6] = 20 min pre-treatment with 0.5% Polyoxyethylene 9 Lauryl Ether
# [7] = 20 min pre-treatment with 0.5% Sodium Caprate
# [8] = 20 min pre-treatment with 0.5% Sodium Deoxycholate
"Papp A→B at 30 min, 10 mM [1, 5] [×10⁻⁶ cm/s]","Papp A→B at 30 min, 10 mM [1, 6] [×10⁻⁶ cm/s]","Papp A→B at 30 min, 10 mM [1, 7] [×10⁻⁶ cm/s]","Papp A→B at 30 min, 10 mM [1, 8] [×10⁻⁶ cm/s]","Papp A→B at 30 min, 10 mM [2] [×10⁻⁶ cm/s]","Papp A→B at 0.5 hr, 10 mM ([3]; 20 min pre-treatment with 0.2% Sodium Caprate) [×10⁻⁶ cm/s]","Papp A→B at 0.5 hr, 10 mM [3, 7] [×10⁻⁶ cm/s]","Papp A→B at 0.5 hr, 10 mM ([3]; 20 min pre-treatment with 1.0% Sodium Caprate) [×10⁻⁶ cm/s]","Papp A→B at 0.5 hr, 10 mM ([3]; 20 min pre-treatment with 2.0% Sodium Caprate) [×10⁻⁶ cm/s]","Papp A→B at 0.5 hr, 10 mM ([3]; excipient: None) [×10⁻⁶ cm/s]",effect of sodium caprate on permeability across a mucosal epithelial cell monolayer [4],Structure (SMILES)
71.6,126,56.8,155,10.8,32.2,55.9,54.8,139,17.7,significantly improved the permeability,"CCCCNc1ccc(C(=O)OCCN(C)C)cc1 [Tetracaine, Tetracaine HCl]"
173,189,116,218,19.2,,,,,,,"CCCCN1CCCCC1C(=O)Nc1c(C)cccc1C (stereo not shown) [Bupivacaine, Bupivacaine HCl]"
